Consider 17 compounds from patent US10738024B2, “Compounds for treatment of angiogenesis-mediated diseases” (Indiana University Research and Technology Corporation, priority 2013, dated 2020).

In one assay the test system is HUVECs. The assay is described as follows: ALAMARBLUE proliferation assay in HUVECs. It is filed as cell-based, human. Particulars: for GI50: Homo sapiens, HUVEC, 48 h, 50% growth inhibitory concentration, alamarBlue. The protocol:
(§1) Particularly, in a 96-well clear bottom black plate, cells (2,500 cells per well) were seeded in a total volume of 100 μL EGM-2. After 24 hours of incubation of the plate at 37° C. and 5% CO2, a DMSO solution of synthetic cremastranone (1) or SH-11052 (2) was added in the concentration range of 0.5 nM to 500 μM (final DMSO concentration=1%). The plate was then further incubated for 48 hours before adding 11.1 μL of ALAMARBLUE® reagent to each well. Four hours after the addition of ALAMARBLUE®, fluorescence readings with excitation and emission wavelengths of 560 nm and 590 nm, respectively, were taken and the data were analyzed in GraphPad Prism software (v. 6.0). Dose response curves were generated and the GI50 values were calculated using the following equation: Y=100/(1+10^(X−Log GI50)).
(§2) For proliferation assays, cells (2500 per well) were seeded in a 96-well clear bottom black polystyrene plate in a total volume of 100 μL. HUVECs and HRECs were grown in EGM-2 and CSC+ media respectively, while 92-1 and Y79 cells were maintained in RPMI+10% FBS, penicillin/streptomycin and RB medium (IMDM+10% FBS+penicillin/streptomycin+10 μg/mL insulin+55 μM β-mercaptoethanol) respectively. After 24 hours of incubation of the plate at 37° C., the compounds were dissolved in DMSO and added in the concentration range of 500 μM to 0.5 nM. The plate was then incubated at 37° C. and 5% CO2 conditions for 48 hours before adding 11.1 μL of alamar blue reagent for each well. Four hours after the addition of ALAMARBLUE® reagent, fluorescence readings with excitation and emission wavelengths of 560 nm and 590 nm respectively were taken and the data was analyzed in GraphPad Prism software. The dose response curves were generated and the GI50 values were calculated using the equation: Y=100/(1+10^(X−Log GI50)) (Table 1).
Background: The colour change of resazurin is a common sign of viable cells or microbes.

A further assay relates to HRECs. Put plainly: ALAMARBLUE proliferation assay in HRECs. It is filed as cell-based, human. Particulars: for GI50: Homo sapiens, HREC, 50% growth inhibitory concentration, 48 hours, alamarBlue, read-out: GI50 HREC. On the procedure:
as §1, §2

The subject of assay [1] is Y-79 retinoblastoma cells. The assay is described as follows: ALAMARBLUE proliferation assay in Y-79 retinoblastoma cells. It is filed as cell-based. Particulars: 50% growth inhibitory concentration, 48 hours. The protocol: as §2
Assay [2] relates to 92-1 uveal melanoma cells. The assay is described as follows: ALAMARBLUE proliferation assay in 92-1 uveal melanoma cells. It is filed as cell-based. Particulars: 50% growth inhibitory concentration, 48 hours, alamarBlue. On the procedure: as §2

The term GI50 denotes the concentration giving 50% growth inhibition.

Consider `COc1ccc(CCC(=O)c2c(O)cc(OC)c(OC)c2OC)cc1OC` [Compound 4c], for which the GI50 in the assay on HUVECs is 74 µM; with HRECs, 123 µM; in assay [1], over 100 µM; in assay [2], over 100 µM.

For the compound `COc1ccc(/C=C2\COc3cc(OC)c(OC)c(OC)c3C2=O)cc1[N+](=O)[O-]` [Compound 11h], the GI50 stood at 11 µM in the assay with HUVECs, 4 µM in the assay with HRECs, 44 µM in assay [1] and 13 µM in assay [2].

Consider `COc1ccc(CC2COc3cc(O)c(O)c(O)c3C2=O)cc1O` (stereo not shown) [Compound 8d, 5,6,7-trihydroxy-3-(3-hydroxy-4-methoxybenzyl)chroman-4-one], for which the GI50 with HUVECs is 124 µM; with HRECs, 135 µM; in assay [1], over 500 µM; in assay [2] it was over 500 µM.

Turning to `COc1ccc(CC2COc3cc(OC)c(O)c(O)c3C2=O)cc1OC(=O)c1ccccc1` (stereo not shown) [Compound 8c], the GI50 in the assay with HUVECs is over 100 µM; in the assay with HRECs, over 100 µM; in assay [1] it was over 50 µM; in assay [2], 51 µM.

Turning to `COc1ccc(/C=C2\COc3cc(OC)c(OC)c(OC)c3C2=O)cc1OCC(=O)O` [Compound 11m], the GI50 (in the assay on HUVECs; in the assay on HRECs; in assay [1]; in assay [2]) was over 500 µM each time.

With `C=CCOc1cc(/C=C2\COc3cc(OC)c(OC)c(OC)c3C2=O)ccc1OC` [Compound 11c, (E)-3-(3′-allyloxy-4′-methoxybenzylidene)-5,6,7-trimethoxychroman-4-one], the GI50 with HUVECs amounted to 11 µM; in the assay with HRECs, 4 µM; in assay [1] it was 3 µM; in assay [2], 3.2 µM.

As to `COc1cc(/C=C2\COc3cc(OC)c(OC)c(OC)c3C2=O)cc(OC)c1OC` [Compound 11u], the GI50 with HUVECs was 10.4 µM; in the assay with HRECs, 16.6 µM; in assay [1], 9 µM; in assay [2], over 250 µM.

`COc1cc(OC)c2c(c1)OC/C(=C\c1ccc(OC)c(O)c1)C2=O` [Compound 15a]: the GI50 is 17.7 µM in the assay with HUVECs, 37 µM with HRECs, 13.5 µM in assay [1] and 78.5 µM in assay [2].

`C=C(Cc1ccc(OC)c(O)c1)C(=O)c1c(O)cc(OC)c(OC)c1OC` [Compound 7, 1-(6-hydroxy-2,3,4-trimethoxyphenyl)-2-(3′-hydroxy-4′-methoxybenzyl)prop-2-en-1-one]: the concentration for 50% growth inhibition (GI50) with HUVECs was determined as 1.4 µM; in the assay with HRECs, 10 µM; in assay [1], 8 µM; in assay [2] it was 17 µM.

With `COc1ccc(CC2COc3cc(O)c(OC)c(O)c3C2=O)cc1O` (racemic) [Compound 1, 5,7-dihydroxy-3-(3-hydroxy-4-methoxybenzyl)-6-methoxychroman-4-one], the GI50 was found to be 0.377 µM in the assay with HUVECs, 0.217 µM with HRECs, 47 µM in assay [1] and 9.8 µM in assay [2]. The “in vitro anti-proliferative activity in HUVECs” value in the assay with HUVECs (result in words, FIGS. 6A, 6C) is reported as “demonstrated in vitro anti-proliferative activity”. Also, in the assay with HRECs (result in words, FIGS. 6B, 6D, 14), the “in vitro anti-proliferative activity in HRECs” value is listed as “demonstrated in vitro anti-proliferative activity”.

Consider `COc1ccc(CC2COc3cc(OC)c(OC)c(O)c3C2=O)cc1O` (stereo not shown) [Compound 8a], for which the GI50 was 44 µM in the assay with HUVECs, over 100 µM with HRECs, over 100 µM in assay [1] and over 100 µM in assay [2].

On to `COc1ccc(/C=C2\COc3cc(OC)c(OC)c(OC)c3C2=O)cc1OCCN1CCCC1` [Compound 11k, (E)-5,6,7-trimethoxy-3-(4-methoxy-3-(2-(pyrrolidin-1-yl)ethoxy)benzylidene)chroman-4-one], for which the GI50 with HUVECs stood at 3.5 µM; in the assay on HRECs, 0.185 µM; in assay [1] it was 3.2 µM; in assay [2], 6 µM.

With `COc1ccc(/C=C/C(=O)c2c(O)cc(OC)c(OC)c2OC)cc1OCc1ccccc1` [Compound 3a, (E)-3-(3′-benzyloxy-4′-methoxyphenyl)-1-(6-hydroxy-2,3,4-trimethoxyphenyl) prop-2-en-1-one], the GI50 in the assay with HUVECs is 94 µM; in the assay with HRECs, over 100 µM; in assay [1] it was over 100 µM; in assay [2], over 100 µM.

For the compound `COc1ccc(Cc2coc3cc(OC)c(OC)c(OC)c3c2=O)cc1O` [Compound 9a, 3-(3′-hydroxy-4′-methoxybenzyl)-5,6,7-trimethoxy-4H-chromen-4-one], the GI50 (in the assay with HUVECs; in the assay on HRECs; in assay [1]; in assay [2]) was over 100 µM each time.

`COc1cc(/C=C2\COc3cc(OC)c(OC)c(OC)c3C2=O)ccc1OCc1ccccc1` [Compound 11d]: the GI50 in the assay on HUVECs worked out at 114 µM; with HRECs it was 53 µM; in assay [1] it was 39 µM; in assay [2], 23 µM.

Turning to `COc1cc2c(c(OC)c1OC)C(=O)/C(=C/c1ccc([N+](=O)[O-])cc1)CO2` [Compound 11j], the GI50 in the assay on HUVECs came out at 6 µM; in the assay on HRECs it was 14 µM; in assay [1], 9 µM; in assay [2], 23 µM.

Consider `COc1ccc(CCC(=O)c2c(O)cc(OC)c(OC)c2OC)cc1O` [Compound 4a, 1-(6-hydroxy-2,3,4-trimethoxyphenyl)-3-(3′-hydroxy-4′-methoxyphenyl) propan-1-one], for which the GI50 in the assay on HUVECs was 102 µM; in the assay with HRECs it was 68 µM; in assay [1], 68 µM; in assay [2], over 100 µM.
